This passage reports melting point results from patent US20050009912A1, “Prodrugs of excitatory amino acids” (priority 2001, published 2005).

Molecules are shown by their SMILES.

With `Cl.N[C@@]1(C(=O)OCc2cc(Cl)ccc2Cl)CC[C@H]2[C@H](C(=O)O)[C@H]21` [Example 33, (1S,2S,5R,6S)-2-Amino-bicyclo[3.1.0]hexane-2,6-dicarboxylic acid 2-(2′,5′-dichloro)benzyl ester hydrochloride], the melting point (as a rule, the temperature, or range, at which the solid turns liquid) fell in the range of 173 to 175 °C. The value for `COc1ccccc1COC(=O)[C@]1(N)CC[C@H]2[C@H](C(=O)O)[C@H]21` [Example 48, (1S,2S, SR, 6S)-2-Amino-bicyclo[3.1.0]hexane-2,6-dicarboxylic acid 2-(2′-methoxy)benzyl ester] was 195 °C (dec.). The value for `Cl.N[C@@]1(C(=O)OCc2ccc(Cl)cc2Cl)CC[C@H]2[C@H](C(=O)O)[C@H]21` [Example 29, (1S,2S,5R,6S)-2-Amino-bicyclo[3.1.0]hexane-2,6-dicarboxylic acid 2-(2′,4′-dichloro)benzyl ester hydrochloride] was 135 to 137 °C. The value for `Cl.N[C@@]1(C(=O)OCc2cc(F)cc(F)c2)CC[C@H]2[C@H](C(=O)O)[C@H]21` [Example 35, (1S,2S,5R,6S)-2-Amino-bicyclo[3.1.0]hexane-2,6-dicarboxylic acid 2-(31,5′-difluoro)benzyl ester hydrochloride] was 98 to 99 °C. Turning to `Cl.N[C@@]1(C(=O)OCc2ccccc2Br)CC[C@H]2[C@H](C(=O)O)[C@H]21` [Example 34, (1S,2S,5R,6S)-2-Amino-bicyclo[3.1.0]hexane-2,6-dicarboxylic acid 2-(2′-bromo)benzyl ester hydrochloride], the melting point was in the range of 190 to 191 °C. The value for `N[C@@]1(C(=O)OCc2cccc(F)c2)CC[C@H]2[C@H](C(=O)O)[C@H]21` [Example 54, (1S, 2S, SR,6S)-2-Amino-bicyclo[3.1.0]hexane-2,6-dicarboxylic acid 2-(3′-fluoro)benzyl ester] was 225 °C (dec.); that for `Cc1ccc(C)c(COC(=O)[C@]2(N)CC[C@H]3[C@H](C(=O)O)[C@H]32)c1.Cl` [Example 41, (1S,2S,5R,6S)-2-Amino-bicyclo[3.1.0]hexane-2,6-dicarboxylic acid 2-(2′,5′-dimethyl)benzyl ester hydrochloride] was 70 °C (dec.). The same measure for `Cl.N[C@@]1(C(=O)OCc2ccccc2F)CC[C@H]2[C@H](C(=O)O)[C@H]21` [Example 31, (1S,2S,5R,6S)-2-Amino-bicyclo[3.1.0]hexane-2,6-dicarboxylic acid 2-(2′-fluoro)benzyl ester hydrochloride]: > 220 °C (dec.); for `Cl.N[C@@]1(C(=O)OCc2ccccc2C(F)(F)F)CC[C@H]2[C@H](C(=O)O)[C@H]21`: > 175 °C (dec.).
